From patent US9931308B2, “Compositions and methods using P-anisaldehyde” (NESTEC S.A., priority 2013, dated 2018)
pEC50: −log10 of the molar value. Read-outs that look alike come from different tables or passages of the source.

Assays:
TRPM8 = TRPM8 (Homo sapiens, UniProt Q7Z2W7); test: in vitro activation of hTRPM8 in cells expressing TRP channels (FIG. 7); type: cell-based; parameters: expressed in transfected cells; an “empty” cell control implies recombinant expression; details: FIG. 7, upward pointing triangles
TRPV1 = target: T1, TRPV1 (Homo sapiens, UniProt Q8NER1); test: in vitro activation of TRPV1 in cells expressing TRP channels (FIG. 7); type: cell-based; details: FIG. 7, squares; read-out: EC 50 TRPV1 activation
T1 construct: expressed in transfected cells; an “empty” cell control implies recombinant expression

TRPA1 [1] = target: T2, TRPA1 (Homo sapiens, UniProt O75762); test: in vitro activation of TRPA1 in cells expressing TRP channels (FIG. 7); type: cell-based; details: FIG. 7, circles; read-out: EC-50 TRPA1 activation
"empty" cells = test: in vitro activation on "empty" cells, control (FIG. 7); type: cell-based; details: FIG. 7, downward pointing triangles
mice [2] = test: insulin sensitivity in mice with chronic ingestion, high fat diet (FIG. 4); type: in vivo; details: mice chronically fed high fat diet containing 0.2 wt % compound vs same diet without
TRPA1 [3] = target: T2, TRPA1; details: known TRPA1 agonist; read-out: EC50 TRPA1 activation; cited from earlier work
mice [4] = test: short term food intake after a single ingestion in mice (FIG. 5); type: in vivo; details: single dose vs sham gavage
mice [5] = test: gastric emptying after a single ingestion in mice (FIG. 6); type: in vivo; details: single dose vs sham gavage
mice [6] = test: body weight gain in mice with chronic ingestion, high fat diet (FIG. 3); type: in vivo; details: mice chronically fed high fat diet containing 0.2 wt % compound vs same diet without

T2 sequence (O75762 whole entry, species assumed): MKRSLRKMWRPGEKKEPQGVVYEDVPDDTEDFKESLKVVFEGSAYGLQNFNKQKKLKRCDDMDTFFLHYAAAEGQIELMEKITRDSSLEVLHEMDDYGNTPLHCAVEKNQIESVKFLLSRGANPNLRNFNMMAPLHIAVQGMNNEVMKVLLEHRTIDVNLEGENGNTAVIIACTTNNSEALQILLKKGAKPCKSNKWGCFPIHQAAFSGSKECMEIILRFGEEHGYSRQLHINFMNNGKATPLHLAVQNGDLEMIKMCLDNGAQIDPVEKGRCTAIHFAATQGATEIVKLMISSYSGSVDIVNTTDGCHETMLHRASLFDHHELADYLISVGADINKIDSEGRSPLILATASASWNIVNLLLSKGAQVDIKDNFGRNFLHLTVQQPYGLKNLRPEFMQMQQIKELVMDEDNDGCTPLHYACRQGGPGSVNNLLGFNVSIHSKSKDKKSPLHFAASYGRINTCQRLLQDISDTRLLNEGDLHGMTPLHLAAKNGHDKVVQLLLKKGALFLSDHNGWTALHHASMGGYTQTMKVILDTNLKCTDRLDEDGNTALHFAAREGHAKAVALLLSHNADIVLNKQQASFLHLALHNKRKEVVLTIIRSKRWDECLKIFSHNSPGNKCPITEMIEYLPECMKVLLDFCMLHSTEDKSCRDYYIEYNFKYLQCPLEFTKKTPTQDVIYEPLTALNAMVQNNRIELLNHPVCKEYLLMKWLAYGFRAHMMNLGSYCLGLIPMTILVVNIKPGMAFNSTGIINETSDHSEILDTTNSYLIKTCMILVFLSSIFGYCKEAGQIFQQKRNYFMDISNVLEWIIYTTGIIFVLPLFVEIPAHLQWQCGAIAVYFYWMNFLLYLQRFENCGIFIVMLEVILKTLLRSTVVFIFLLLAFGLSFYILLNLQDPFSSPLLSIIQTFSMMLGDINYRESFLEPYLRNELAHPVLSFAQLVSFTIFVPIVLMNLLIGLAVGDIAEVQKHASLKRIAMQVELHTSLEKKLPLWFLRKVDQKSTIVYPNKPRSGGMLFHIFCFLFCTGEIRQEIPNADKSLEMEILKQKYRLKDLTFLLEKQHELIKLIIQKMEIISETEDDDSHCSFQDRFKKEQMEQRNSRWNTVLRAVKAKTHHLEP
Sequence of TRPM8 (Q7Z2W7 whole entry): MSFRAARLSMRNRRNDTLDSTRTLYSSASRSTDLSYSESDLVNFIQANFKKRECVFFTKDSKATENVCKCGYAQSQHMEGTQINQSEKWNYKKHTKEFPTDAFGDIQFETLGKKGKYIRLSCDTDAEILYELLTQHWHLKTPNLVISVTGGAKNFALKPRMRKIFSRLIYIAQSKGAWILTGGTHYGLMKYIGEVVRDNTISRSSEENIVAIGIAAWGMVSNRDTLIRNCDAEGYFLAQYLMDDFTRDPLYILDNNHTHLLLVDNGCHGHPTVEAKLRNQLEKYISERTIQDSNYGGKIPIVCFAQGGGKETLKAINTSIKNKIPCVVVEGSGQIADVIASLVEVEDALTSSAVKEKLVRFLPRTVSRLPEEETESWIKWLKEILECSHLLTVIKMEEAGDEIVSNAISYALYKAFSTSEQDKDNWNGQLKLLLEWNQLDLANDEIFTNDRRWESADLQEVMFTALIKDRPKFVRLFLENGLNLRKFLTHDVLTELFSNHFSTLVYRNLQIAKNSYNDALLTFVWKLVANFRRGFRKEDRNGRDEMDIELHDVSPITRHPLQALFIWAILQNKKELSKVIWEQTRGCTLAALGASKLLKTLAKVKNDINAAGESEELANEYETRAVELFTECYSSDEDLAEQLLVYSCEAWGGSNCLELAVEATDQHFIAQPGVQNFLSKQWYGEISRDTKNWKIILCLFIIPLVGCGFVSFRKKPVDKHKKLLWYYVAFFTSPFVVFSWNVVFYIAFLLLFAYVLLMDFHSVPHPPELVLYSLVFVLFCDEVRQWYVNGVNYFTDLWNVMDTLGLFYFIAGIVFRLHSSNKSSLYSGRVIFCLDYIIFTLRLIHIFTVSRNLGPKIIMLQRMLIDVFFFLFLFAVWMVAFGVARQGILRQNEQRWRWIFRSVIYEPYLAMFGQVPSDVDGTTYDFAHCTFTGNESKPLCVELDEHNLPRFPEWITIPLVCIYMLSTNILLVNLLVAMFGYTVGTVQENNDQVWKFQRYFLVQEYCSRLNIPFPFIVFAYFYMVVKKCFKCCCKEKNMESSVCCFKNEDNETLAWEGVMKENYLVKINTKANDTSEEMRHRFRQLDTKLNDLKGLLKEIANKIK
T1 sequence (Q8NER1 whole entry, species assumed): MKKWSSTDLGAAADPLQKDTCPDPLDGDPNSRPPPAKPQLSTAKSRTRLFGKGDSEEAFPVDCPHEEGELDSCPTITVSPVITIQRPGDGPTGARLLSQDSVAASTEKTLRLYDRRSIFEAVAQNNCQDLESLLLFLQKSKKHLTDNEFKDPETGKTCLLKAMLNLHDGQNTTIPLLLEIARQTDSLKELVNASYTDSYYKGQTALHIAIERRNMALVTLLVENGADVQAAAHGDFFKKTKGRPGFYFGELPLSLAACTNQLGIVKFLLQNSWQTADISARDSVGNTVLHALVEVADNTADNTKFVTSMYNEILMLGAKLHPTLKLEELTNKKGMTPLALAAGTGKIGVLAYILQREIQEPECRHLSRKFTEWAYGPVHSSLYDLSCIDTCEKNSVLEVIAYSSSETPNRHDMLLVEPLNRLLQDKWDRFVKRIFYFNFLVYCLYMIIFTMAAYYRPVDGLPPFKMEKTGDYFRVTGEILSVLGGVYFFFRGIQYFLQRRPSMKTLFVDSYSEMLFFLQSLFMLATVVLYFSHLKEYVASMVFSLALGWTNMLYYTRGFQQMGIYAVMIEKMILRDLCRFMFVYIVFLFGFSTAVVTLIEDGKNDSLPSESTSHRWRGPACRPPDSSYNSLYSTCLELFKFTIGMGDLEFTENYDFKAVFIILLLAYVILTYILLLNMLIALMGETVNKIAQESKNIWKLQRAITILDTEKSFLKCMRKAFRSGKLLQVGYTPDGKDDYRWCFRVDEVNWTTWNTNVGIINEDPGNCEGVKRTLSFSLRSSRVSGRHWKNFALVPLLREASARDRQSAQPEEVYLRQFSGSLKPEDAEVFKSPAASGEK

COc1ccc(C=O)cc1 [p-anisaldehyde]
activation of hTRPM8 (TRPM8): no activation was observed
pEC50 (TRPV1): ~3.30
pEC50 (TRPA1 [1]): ~4.00
activation of "empty" cells ("empty" cells): no activation was observed

O=CC=Cc1ccccc1 [cinnamaldehyde]
insulin sensitivity (mice [2]): improved insulin sensitivity
pEC50 (TRPA1 [3]): ~4.22
short term food intake (mice [4]): reduction in short term food intake
gastric emptying (mice [5]): delayed gastric emptying
body weight gain (mice [6]): gained less weight
